These results are taken from ChEMBL document CHEMBL1128412, “Mechanism-based development of new antimalarials: synthesis of derivatives of artemisinin attached to iron chelators” (J Med Chem, 1995).

Test [1] has as its system Plasmodium falciparum. As to the kind of experiment: In vitro antimalarial activity against Plasmodium falciparum. The format is functional, organism-based.
Test [2] deals with Plasmodium falciparum. In words: In vitro antimalarial activity against Plasmodium falciparum in 20 mM FeCl3. The format is functional, organism-based.

`C[C@H]1[C@@H](OCCCONC(=O)c2ccccc2)O[C@@H]2O[C@@]3(C)CC[C@H]4[C@H](C)CC[C@@H]1[C@@]24OO3`: the IC50 in the test with Plasmodium falciparum [1] came to 0.0236 µM; in the test on Plasmodium falciparum [2], 0.0329 µM. On to `C[C@H]1[C@@H](OCCC2Oc3cccc(O)c3O2)O[C@@H]2O[C@@]3(C)CC[C@H]4[C@H](C)CC[C@@H]1[C@@]24OO3` (some centres undefined), for which the IC50 with Plasmodium falciparum [1] came to 0.00664 µM.

`C[C@H]1[C@@H](OCCC2ON2C(=O)c2ccccc2O)O[C@@H]2O[C@@]3(C)CC[C@H]4[C@H](C)CC[C@@H]1[C@@]24OO3` (some centres undefined): in the test with Plasmodium falciparum [1], inhibition was half-maximal at 0.00425 µM (IC50). Same read-out and setting: the value for `CCN(CC)C(=S)SCCCO[C@H]1O[C@@H]2O[C@@]3(C)CC[C@H]4[C@H](C)CC[C@@H]([C@H]1C)[C@@]24OO3` was 0.00765 µM; that for `O=C(NO)c1ccccc1` [BENZOHYDROXAMATE] was 17.6 µM; that for `C[C@H]1[C@@H](O)O[C@@H]2O[C@@]3(C)CC[C@H]4[C@H](C)CC[C@@H]1[C@@]24OO3` [ARTENIMOL] was 0.0011 µM. As for `O=c1cc(CO)occ1O` [KOJIC ACID], half-maximal inhibition in the test on Plasmodium falciparum [1] (IC50) was put at 1580 µM. `C[C@H]1[C@@H](OCCCOc2cccc(O)c2O)O[C@@H]2O[C@@]3(C)CC[C@H]4[C@H](C)CC[C@@H]1[C@@]24OO3`: in the test on Plasmodium falciparum [1], the IC50 turned out to be 0.0127 µM.

Consider `C[C@H]1[C@@H](OCCCOc2c(O)cccc2O)O[C@@H]2O[C@@]3(C)CC[C@H]4[C@H](C)CC[C@@H]1[C@@]24OO3`, for which the IC50 in the test with Plasmodium falciparum [1] was determined as 0.00767 µM; with Plasmodium falciparum [2], 0.00921 µM. `Oc1cccc(O)c1O` [PYROGALLOL] displayed an IC50 in the test with Plasmodium falciparum [1] of 5.66 µM. Consider `COC(=O)/C=C/c1ccc(O)c(O)c1` [METHYLCAFFEATE], for which, in the test with Plasmodium falciparum [1], the IC50 was determined as 46.5 µM. Still for that read-out and setting: to `C[C@H]1[C@@H](OCCCBr)O[C@@H]2O[C@@]3(C)CC[C@H]4[C@H](C)CC[C@@H]1[C@@]24OO3` belongs 0.00368 µM. Regarding `C[C@H]1[C@@H](OCCCOc2coc(CO)cc2=O)O[C@@H]2O[C@@]3(C)CC[C@H]4[C@H](C)CC[C@@H]1[C@@]24OO3`, the figures for the IC50 in the test on Plasmodium falciparum [1] and with Plasmodium falciparum [2] were 0.00955 µM and 0.0168 µM, respectively. As to `C[C@@H]1CC[C@H]2[C@@H](C)C(=O)O[C@@H]3O[C@@]4(C)CC[C@@H]1[C@]32OO4` [ARTEMISININ], the IC50 with Plasmodium falciparum [1] was 0.00582 µM; in the test with Plasmodium falciparum [2] it was 0.00541 µM. Consider `O=C(O)/C=C/c1ccc(O)c(O)c1` [CAFFEIC ACID], for which, in the test with Plasmodium falciparum [1], inhibition was half-maximal at 122 µM (IC50).

The compound `O=C(NO)c1ccccc1O` [SALICYLHYDROXAMIC ACID] displayed an IC50 in the test on Plasmodium falciparum [1] of 107 µM. Consider `C[C@H]1[C@@H](OCCCONC(=O)c2ccccc2O)O[C@@H]2O[C@@]3(C)CC[C@H]4[C@H](C)CC[C@@H]1[C@@]24OO3`, for which the IC50 came to 0.0525 µM in the test on Plasmodium falciparum [1] and 0.0487 µM with Plasmodium falciparum [2].

For `COC(=O)/C=C/c1ccc(OCCCO[C@H]2O[C@@H]3O[C@@]4(C)CC[C@H]5[C@H](C)CC[C@@H]([C@H]2C)[C@@]35OO4)c(O)c1`, the values for the IC50 in the test with Plasmodium falciparum [1] and in the test with Plasmodium falciparum [2] were 0.00478 µM and 0.00338 µM, respectively.

In general, IC50 refers to the concentration needed to halve the response being measured. The low end stands for inhibition by little substance, the high end for a need for much substance.
